Some results are limits rather than exact numbers.

This is an account of results in patent US20050107257A1, “Derivatives of (1-benzyl-piperidine-4-yl)-diphenyl-methanol and their use as pesticide” (priority 2002, published 2005).

In one series the test system is Spodoptera littoralis. Kind of series: Action against Spodoptera littoralis caterpillars (sprayed soybean plants). In kind it is in vivo. The following applies: 72 h, 400 ppm spray mixture, third-stage caterpillars, evaluation 3 days later, read-out: % activity (percentage reduction in population and percentage reduction in feeding damage). Here is the method: Young soybean plants are sprayed with an aqueous emulsion spray mixture comprising 400 ppm of test compound. After the spray-coating has dried, the soybean plants are populated with 10 caterpillars of Spodoptera littoralis in the third stage and placed in a plastics container. Evaluation is made 3 days later. The percentage reduction in population and the percentage reduction in feeding damage (% activity) are determined by comparing the number of dead caterpillars and the feeding damage on the treated plants with that on untreated plants.

The next series concerns Plutella xylostella. Kind of series: Action against Plutella xylostella caterpillars (sprayed cabbage plants). In kind it is in vivo. The following applies: 72 h, 400 ppm spray mixture, third-stage caterpillars, evaluation 3 days later, read-out: % activity (percentage reduction in population and percentage reduction in feeding damage). The procedure:
Young cabbage plants are sprayed with an aqueous emulsion spray mixture comprising 400 ppm of test compound. After the spray-coating has dried, the cabbage plants are populated with 10 caterpillars of Plutella xylostella in the third stage and placed in a plastics container. Evaluation is made 3 days later. The percentage reduction in population and the percentage reduction in feeding damage (% activity) are determined by comparing the number of dead caterpillars and the feeding damage on the treated plants with that on the untreated plants.

For another series, the system named is Heliothis virescens. Kind of series: Action against Heliothis virescens caterpillars (sprayed soybean plants). It is filed as in vivo. The settings on record: 144 h, 400 ppm spray mixture, first-stage caterpillars, evaluation 6 days later, read-out: % activity (percentage reduction in population and percentage reduction in feeding damage). The procedure: Young soybean plants are sprayed with an aqueous emulsion spray mixture comprising 400 ppm of test compound. After the spray-coating has dried, the soybean plants are populated with 10 caterpillars of Heliothis virescens in the first stage and placed in a plastics container. Evaluation is made 6 days later. The percentage reduction in population and the percentage reduction in feeding damage (% activity) are determined by comparing the number of dead caterpillars and the feeding damage on the treated plants with that on untreated plants.

In the next series the test system is Diabrotica balteata. Kind of series: Action against Diabrotica balteata larvae (sprayed maize seedlings). It is filed as in vivo. The settings on record: 144 h, 400 ppm spray mixture, second-stage larvae, evaluation 6 days later, read-out: % activity (percentage reduction in population). The procedure:
Maize seedlings are sprayed with an aqueous emulsion spray mixture comprising 400 ppm of the test compound. After the spray-coating has dried, the maize seedlings are populated with 10 Diabrotica balteata larvae in the second stage and placed in a plastics container. Evaluation is made 6 days later. The percentage reduction in population (% activity) is determined by comparing the number of dead larvae on the treated plants with that on untreated plants.

For `CC(C)OC(=O)Nc1ccc(CN2CC[C@@H](C(O)(c3ccc(C(F)(F)F)cc3)c3ccc(C(F)(F)F)cc3)[C@H](C)C2)cc1` [Compound 2.6], the melting point (in general, the temperature, or range, at which the solid turns liquid) lay within 66 to 67 °C. Also, the inhibition at 400 ppm with Spodoptera littoralis is above 80%. Besides, the inhibition at 400 ppm in the series on Plutella xylostella was above 80%. Besides, the inhibition at 400 ppm with Heliothis virescens is above 80%. For the same compound, in the series with Diabrotica balteata, the inhibition at 400 ppm was above 80%.
On to `CCC1=C(C(O)(c2ccc(C(F)(F)F)cc2)c2ccc(C(F)(F)F)cc2)CC[N+]([O-])(Cc2ccc(NC(=O)OC(C)C)cc2)C1` (centres unmarked) [Compound 1.11], for which the melting point was in the range of 207 to 211 °C.
In the case of `CC(C)OC(=O)Nc1ccc(C[N+]2([O-])CC[C@@H](C(O)(c3ccc(C(F)(F)F)cc3)c3ccc(C(F)(F)F)cc3)[C@H](C)C2)cc1` (some centres unmarked) [Compound 2.5], the melting point lay within 188 to 190 °C. Further, the inhibition at 400 ppm in the series with Spodoptera littoralis is above 80%. In addition, the inhibition at 400 ppm in the series with Plutella xylostella is above 80%. The inhibition at 400 ppm in the series with Heliothis virescens is above 80%. For the same compound, the inhibition at 400 ppm in the series on Diabrotica balteata is above 80%.
